The term IC50 denotes the concentration at which inhibition is half-maximal.

Peptide text beside a SMILES is read from it. * marks the point of attachment. Cbz = O=C(OCc1ccccc1)*; CH2F = FC*

Here are results for three compounds from PMC2784364, “VX-166: a novel potent small molecule caspase inhibitor as a potential therapy for sepsis” (Critical Care, 2009).

In assay [1] the test system is IL-2 release from peripheral blood mononuclear cells. The assay can be described thus: IL-2 release from anti-CD3/CD28 stimulated PBMC. The following applies: anti-CD3/CD28 stimulated human PBMC, 24 hours; read-out: IC50, inhibition of IL-2 release. The assay is classed as cell-based, human. The procedure: PBMC from healthy donors were isolated as described above. To the wells of a 96-well plate previously coated with 1.5 μg/ml anti-hCD3 (Serotec, Kidlington, UK), 5 × 10^5 cells/ml and 1 μg/ml anti-hCD28 (BD Biosciences, Oxford, UK) were added. Plates were then incubated for 24 hours in the presence or absence of VX-166 or the calcineurin inhibitor FK506 (Merck Biosciences Ltd., Nottingham, UK). IL-2 release into the supernatant was subsequently determined by ELISA (R&D Systems, Abingdon, UK) following the manufacturer's instructions.

Assay [2] deals with IL-2 release from activated T-cells. Set-up: method as in PMID 10601363. To be noted: 50 μM; cited from earlier work.
In a further assay the test system is Jurkat cells. The assay can be described thus: Anti-Fas induced apoptosis in Jurkat cells, Annexin V. To be noted: Fas-induced apoptosis, readout not specified, data not shown; read-out: IC50 in Fas-assay. The format is cell-based, human. As for the experimental part:
Jurkat cells were obtained from LGC Standards (Teddington, UK) and were grown in RPMI 1640, 10% FCS, 2 mM L-glutamine, 100 U/ml penicillin and 0.1 mg/ml streptomycin (all from Sigma Aldrich Ltd., Poole, UK) at 37°C in 5% CO2/95% humidity. Receptor- or stress-mediated apoptosis (2 × 10^5 cells/ml) was induced by addition of either anti-Fas antibody CH-11 (10 ng/ml, Millipore UK Ltd., Watford, UK), TNF-α (20 ng/ml, R&D Systems, Abingdon, UK) with cycloheximide (112 ng/ml, Sigma Aldrich Ltd., Poole, UK) or staurosporine (350 ng/ml, Sigma Aldrich Ltd., Poole, UK). VX-166 was diluted into DMSO (10 mM), further diluted in media and added at a range of concentrations. Cells were then incubated for 18 hours. Apoptotic cells were then labelled with Cy5-conjugated Annexin-V (BD Biosciences, Oxford, UK) and detected using a FMAT™ 8100 Fluorimetric Microassay Technology Reader (Applied Biosystems, Warrington, UK). For the experiments using anti-Fas antibody, apoptosis was additionally measured using a Cell Death Detection ELISA kit (Roche Diagnostics Ltd., Lewes, UK) following the manufacturer's instructions.

In the case of `C=CC[C@@H]1/C=C(\C)C[C@H](C)C[C@H](OC)[C@H]2O[C@@](O)(C(=O)C(=O)N3CCCC[C@H]3C(=O)O[C@H](/C(C)=C/[C@@H]3CC[C@@H](O)[C@H](OC)C3)[C@H](C)[C@@H](O)CC1=O)[C@H](C)C[C@@H]2OC` [FK506, reference compound], the IC50 in assay [1] was found to be 0.2 nM.

With `COC(=O)C[C@H](NC(=O)[C@H](C)NC(=O)[C@@H](NC(=O)OCc1ccccc1)C(C)C)C(=O)CF` [zVAD-FMK, reference compound] (Cbz-Val-Ala-Asp(OMe)-CH2F), the “block of IL-2 release from activated T-cells” value in assay [2] was “block IL-2 release”. For the same compound, the concentration for half-maximal inhibition (IC50) in the assay on Jurkat cells was found to be 230 nM.

Regarding IETD-FMK, in assay [2], the “block of IL-2 release from activated T-cells” value is “block IL-2 release”.
